Experimental findings from article PMC12226049, “Imlunestrant a next-generation oral SERD overcomes ESR1 mutant resistance in estrogen receptor–positive breast cancer” (JCI Insight, 2025) are described below.

The assay has as its target T1, Estrogen receptor α (ER) (Homo sapiens, UniProt P03372, Y537S).
T1 construct: gene ESR1; HA-tagged ER mutant, doxycycline-inducible in MCF7
T1 sequence (P03372 1-595 Y537S): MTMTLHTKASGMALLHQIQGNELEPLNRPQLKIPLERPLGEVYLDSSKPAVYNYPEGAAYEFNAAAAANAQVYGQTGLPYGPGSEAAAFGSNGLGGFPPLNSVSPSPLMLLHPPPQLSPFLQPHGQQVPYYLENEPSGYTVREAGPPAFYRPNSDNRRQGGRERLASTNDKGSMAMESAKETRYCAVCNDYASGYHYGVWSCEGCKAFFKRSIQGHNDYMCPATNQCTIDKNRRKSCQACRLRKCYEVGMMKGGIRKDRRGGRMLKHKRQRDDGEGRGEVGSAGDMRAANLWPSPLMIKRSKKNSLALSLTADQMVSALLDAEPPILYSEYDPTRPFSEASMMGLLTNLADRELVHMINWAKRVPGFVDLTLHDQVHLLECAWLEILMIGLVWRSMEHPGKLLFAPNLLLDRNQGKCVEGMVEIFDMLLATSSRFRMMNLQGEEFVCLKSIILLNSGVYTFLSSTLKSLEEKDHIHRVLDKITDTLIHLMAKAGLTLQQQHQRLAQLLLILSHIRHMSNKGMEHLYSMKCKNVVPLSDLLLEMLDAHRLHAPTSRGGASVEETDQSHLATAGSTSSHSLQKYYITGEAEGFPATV
Nature of the assay: degradation of HA-tagged ER-Y537S by western blot in MCF7 cells ([…]). The class given is cell-based.

Take `Oc1ccc2c3c(cnc2c1)-c1ccc(C(F)(F)F)cc1O[C@@H]3c1ccc(OCCN2CC(CF)C2)cc1` [IML, imlunestrant]: the “degradation of HA-tagged ER-Y537S by western blot in MCF7 cells (100 nM)” value is reported as “mutant-ER protein degradation was superior with imlunestrant treatment versus fulvestrant”.
